TGI data for 13 molecules are collected here from PubChem BioAssay (NCI).

Holding throughout (assay): NCI anticancer screen, dose series, 48 h
Test [1] deals with SK-OV-3 ovarian.
Test [2] has as its system MDA-N.
Test [3] deals with COLO 205 colon.
Test [4] relates to MALME-3M melanoma.
The test system of test [5] is A549 NSCLC.
Test [6] relates to SR leukemia.
Test [7] has as its system PC-3 prostate.
Test [8] has as its system SNB-19 CNS.
For test [9], the system named is EKVX NSCLC.
In test [10] the test system is KM12 colon.
In test [11] the test system is LOX IMVI melanoma.
For test [12], the system named is HT29 colon.
Test [13] has as its system SF-539 CNS.
Test [14] relates to ACHN renal.
The test system of test [15] is BT-549 breast.
In test [16] the test system is OVCAR-5 ovarian.
Test [17] deals with CAKI-1 renal.
For test [18], the system named is HL-60(TB) leukemia.

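Tested at 5 concentrations; 48 h exposure; 96-well plates; endpoints linearly interpolated, else capped at highest concentration. TGI denotes the concentration required for complete inhibition of growth.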

`O=C1OC(CS(=O)(=O)c2ccccc2)CC1O` (stereo not given): the TGI in test [1], in test [2], in [3], in test [4], in test [5] and in test [6] was above 100 µM throughout. For the same molecule, the TGI in test [7], in test [8], in test [9], in [10], in test [11] and in test [12] was above 100 µM each time. Further, the TGI in [13], in test [14], in test [15], in test [16] and in [17] was above 100 µM throughout.
As to `Cc1nnc2n1N=C(c1cc(F)c(Cl)cc1Cl)/C(=C/c1ccc3c(c1)OCO3)S2`, the TGI in test [1], in [2], in test [3], in test [4], in test [5] and in test [7] was above 100 µM throughout. Moreover, the TGI in test [8] is above 100 µM; in [9], 84.3 µM; in test [10] it was above 100 µM; in [11], above 100 µM; in [12], above 100 µM; in test [18], above 100 µM. In addition, the TGI in [13], in test [14], in test [15], in [16] and in [17] was above 100 µM each time.
On to `O=C(c1ccccc1)C1C[C@H]2CO[C@H](c3ccccc3)N2C1=O` (stereo not given in full), for which the TGI in [2], in test [3], in test [4], in [5], in test [6] and in [7] was above 100 µM each time. Also, the TGI in [8], in test [9], in test [10], in [11], in test [12] and in [13] was above 100 µM in each case. Further, the TGI in test [14], in [15], in [16] and in test [17] was above 100 µM throughout.
In the case of `CCOC(=O)c1cc2cc(C)cc(C(=O)c3ccc([N+](=O)[O-])cc3)c2[nH]1`, the TGI in test [1], in test [2], in [3], in test [4], in [5] and in test [7] was above 100 µM each time. For the same molecule, the TGI in test [8], in test [9], in [10], in test [11], in test [12] and in test [18] was above 100 µM in each case. Besides, the TGI in test [13], in [14], in test [15], in test [16] and in test [17] was above 100 µM in each case.
As for `Cc1ccc(S(=O)(=O)Nn2c(O)c(C#N)c(-c3ccc(N(C)C)cc3)c(C#N)c2=O)cc1`, the TGI in test [1] was 27.4 µM; in test [2], above 50 µM; in test [3], above 50 µM; in test [4], above 50 µM; in test [5], above 50 µM; in [7], above 50 µM. For the same molecule, the TGI in [8], in test [9], in [10], in test [11], in [12] and in test [18] was above 50 µM in each case. The TGI in test [13], in test [14], in test [15], in [16] and in test [17] was above 50 µM throughout.
As for `COc1ccc(N=CN(C)C)c(C)c1`, the TGI was 82.8 µM in test [1]; above 100 µM in test [2]; 28 µM in [3]; 54 µM in test [4]; above 100 µM in test [5]; 31 µM in [7]. Further, the TGI in [8] was above 100 µM; in [9], above 100 µM; in test [11], 15.2 µM; in [12], 44.6 µM; in test [18] it was 4.1 µM; in test [13] it was 82.1 µM. Besides, the TGI in test [14] is 66.3 µM; in [15], 58.2 µM; in test [16], above 100 µM; in test [17] it was above 100 µM.
Consider `O=C1C=C2CC[C@H]3[C@@H]4CC[C@H](OC(=O)c5cccc6cc7ccccc7nc56)[C@H]4CC[C@@H]3[C@H]2CC1`, for which the TGI in [1], in [2], in [3], in test [4], in test [5] and in test [7] was above 100 µM throughout. Besides, the TGI was above 100 µM in test [8]; above 100 µM in [9]; above 100 µM in [10]; 29.7 µM in test [11]; above 100 µM in [12]; above 100 µM in [18]. Moreover, the TGI in [13], in test [14], in test [15] and in test [16] was above 100 µM each time.
`COc1cccc(C2c3cc4c(cc3OC(N3CCCCC3)C2C)OCO4)c1OC` (stereo not given): the TGI in [1] was above 100 µM; in test [2], 47 µM; in [3] it was 29 µM; in test [4], 39.4 µM; in test [5] it was 22.3 µM; in [6], 4.02 µM. Also, the TGI in [7] was 42.8 µM; in test [8], above 100 µM; in test [9] it was 54.5 µM; in test [10] it was 23.8 µM; in test [11], 20.1 µM; in test [12] it was 19.8 µM. Also, the TGI in test [13] turned out to be 33.9 µM; in test [14] it was 35.1 µM; in test [15] it was 57.4 µM; in test [16], 79.4 µM; in test [17], 11 µM.
`Cc1ccc(C2SCC(=O)N2NC(=O)c2ccncc2)s1` (stereo not given): the TGI in [1], in [2], in test [3], in test [4], in [5] and in test [6] was above 100 µM in each case. Moreover, the TGI in [7], in test [8], in [9], in test [10], in test [11] and in [12] was above 100 µM in each case. Also, the TGI in [13], in test [14], in test [15], in [16] and in test [17] was above 100 µM in each case.
With `C#CCCOC(=O)c1ccccc1OC(C)=O`, the TGI in test [1], in test [2], in test [3], in [6], in test [7] and in test [8] was above 100 µM throughout. The TGI in test [9], in test [10], in test [11], in test [13], in [14] and in test [15] was above 100 µM each time. Moreover, the TGI in test [16] and in test [17] was above 100 µM throughout.
Regarding `CCn1c2ccccc2c2cc(NC(=O)c3c(NCCNCCO)nc(=O)[nH]c3C)ccc21`, the TGI in test [1], in [2], in [3], in [4], in test [5] and in test [7] was above 100 µM throughout. The TGI in test [8], in test [9], in test [10], in [11], in test [12] and in test [18] was above 100 µM in each case. In addition, the TGI in test [13], in [14], in test [15], in test [16] and in test [17] was above 100 µM in each case.
With `COC(=O)[C@H](COC(=O)/C=C/c1ccc(OC(C)=O)c(OC(C)=O)c1)NC(=O)/C=C/c1ccc(OC(C)=O)c(OC(C)=O)c1`, the TGI was 54.3 µM in [1]; 38.8 µM in [2]; 37 µM in [3]; 20.7 µM in [4]; above 100 µM in [5]; 31.2 µM in test [7]. In addition, the TGI in test [8] is 35.8 µM; in [9], 38.9 µM; in [10], 36.6 µM; in test [11], 95.6 µM; in [12], 54 µM; in [18], above 100 µM. Further, the TGI in [13] is above 100 µM; in test [14], 42.2 µM; in [15], 34.9 µM; in test [16] it was 49.7 µM; in [17] it was 35.1 µM.
For the molecule `N#CC(c1ccccc1)N(CCOCCOCCN(C(=O)c1cccc2ccccc12)C(C#N)c1ccccc1)C(=O)c1cccc2ccccc12` (stereo not given), the TGI in test [1], in test [2], in test [3], in test [4], in [5] and in test [7] was above 100 µM throughout. The TGI in [8], in [9], in test [10], in test [11], in [12] and in [18] was above 100 µM in each case. Further, the TGI in test [13], in test [14], in test [15], in [16] and in test [17] was above 100 µM each time.
